This is an account of results in patent US20100022531A1, “NOVEL COMPOUNDS AS P2X7 MODULATORS AND USES THEREOF” (RENOVIS, INC., priority 2005, published 2010).

SMILES strings stand for the structures.

One assay has as its target T1, P2X7 receptor (Homo sapiens, UniProt Q99572).
T1 construct: host or cells: THP-1 cells differentiated with LPS and IFN-γ
T1 sequence (Q99572 1-595): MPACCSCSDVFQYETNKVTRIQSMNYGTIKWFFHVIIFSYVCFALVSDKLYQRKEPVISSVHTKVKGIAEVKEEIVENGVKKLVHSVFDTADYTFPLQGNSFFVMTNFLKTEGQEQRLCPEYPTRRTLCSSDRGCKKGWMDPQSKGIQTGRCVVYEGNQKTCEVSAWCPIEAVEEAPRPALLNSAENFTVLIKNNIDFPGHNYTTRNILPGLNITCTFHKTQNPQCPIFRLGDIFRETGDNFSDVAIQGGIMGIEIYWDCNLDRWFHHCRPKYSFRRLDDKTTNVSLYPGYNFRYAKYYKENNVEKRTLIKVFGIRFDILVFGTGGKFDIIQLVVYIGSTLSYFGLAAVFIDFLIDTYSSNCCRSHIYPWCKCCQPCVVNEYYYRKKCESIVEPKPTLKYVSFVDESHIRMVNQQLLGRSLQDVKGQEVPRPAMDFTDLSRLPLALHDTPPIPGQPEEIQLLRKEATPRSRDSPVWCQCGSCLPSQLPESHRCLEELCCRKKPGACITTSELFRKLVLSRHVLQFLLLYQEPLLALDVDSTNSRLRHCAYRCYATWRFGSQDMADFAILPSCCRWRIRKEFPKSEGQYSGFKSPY
Description: Alternate method for IL-1β release assay (differentiated THP-1 cells, BzATP-stimulated, ELISA). Format: cell-based. As to conditions: P2X7; 0.1 μM compound (plus symbols); read-out: IL-1β % inhib @ 0.1 μM. In short, it runs like this:
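After 16 h differentiation with 100 ng/mL LPS and 100 ng/mL IFN-γ plus a further 2 h LPS priming, THP-1 cells were pretreated 30 min with compound, then stimulated with 250 uM BzATP (final) for 45 min. Supernatant IL-1β measured by ELISA; percent inhibition from background-adjusted levels versus untreated cells.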
(In an ELISA, binding on a coated surface is turned into a signal by an enzyme label.)
As for `O=C(c1ccccc1)N1CCc2c(ncnc2NCC23CC4CC(CC(C4)C2)C3)C1` [Compound 77, {4-[(Adamantan-1-ylmethyl)-amino]-5,8-dihydro-6H-pyrido[3,4-d]pyrimidin-7-yl}-phenyl-methanone], the inhibition at 0.1 µM is > 75%.

Turning to `O=C(c1ccccc1F)N1CCc2c(ncnc2NCC23CC4CC(CC(C4)C2)C3)C1` [Compound 135], the inhibition at 0.1 µM lay within 50 to 75%.

As for `O=C(c1c(Cl)cccc1Cl)N1CCc2c(ncnc2NCC23CC4CC(CC(C4)C2)C3)C1` [Compound 75], the inhibition at 0.1 µM is > 75%.

The same assay, now with this note: P2X7; 0.1 μM compound (symbols + to ++++); read-out: IL-1β % inhib @ 0.1 μM.
`CS(=O)(=O)c1ccc(COC(=O)N2CCc3c(ncnc3NCC34CC5CC(CC(C5)C3)C4)C2)cc1` [Compound 329]: the inhibition at 0.1 µM was in the range of 50 to 75%.

Consider `Fc1ccc(CN2CCc3c(ncnc3NCC34CC5CC(CC(F)(C5)C3)C4)C2)c(F)c1` [Compound 323], for which the inhibition at 0.1 µM was in the range of 50 to 75%.

Take `O=C(c1cccnc1)N1CCc2c(ncnc2NCC23CC4CC(CC(F)(C4)C2)C3)C1` [Compound 322]: the inhibition at 0.1 µM fell in the range of 25 to 50%.

In the case of `OC12CC3CC(C1)CC(CNc1ncnc4c1CCN(Cc1ccccc1)C4)(C3)C2` [Compound 326, 3-[(7-Benzyl-5,6,7,8-tetrahydro-pyrido[3,4-d]pyrimidin-4-ylamino)-methyl]-adamantan-1-ol], the inhibition at 0.1 µM was > 75%.

Take `O=C(OCc1ccc(F)cc1)N1CCc2c(ncnc2NCC23CC4CC(CC(C4)C2)C3)C1` [Compound 327]: the inhibition at 0.1 µM fell in the range of 50 to 75%.

As to `O=C(OCC1CCCO1)N1CCc2c(ncnc2NCC23CC4CC(CC(C4)C2)C3)C1` (stereo not drawn) [Compound 341], the inhibition at 0.1 µM was in the range of 50 to 75%.

As for `O=C(OCc1ccoc1)N1CCc2c(ncnc2NCC23CC4CC(CC(C4)C2)C3)C1` [Compound 340], the inhibition at 0.1 µM lay in the range of 50 to 75%.

Turning to `O=C(OCc1cccnc1)N1CCc2c(ncnc2NCC23CC4CC(CC(C4)C2)C3)C1` [Compound 328], the inhibition at 0.1 µM was 50 to 75%.

On to `Cc1cc(COC(=O)N2CCc3c(ncnc3NCC34CC5CC(CC(C5)C3)C4)C2)no1` [Compound 330], for which the inhibition at 0.1 µM was 0 to 25%.

Take `O=C(C1CCOC1)N1CCc2c(ncnc2NCC23CC4CC(CC(C4)C2)C3)C1` (stereo not drawn) [Compound 249, {4-[(Adamantan-1-ylmethyl)-amino]-5,8-dihydro-6H-pyrido[3,4-d]pyrimidin-7-yl}-(tetrahydro-furan-3-yl)-methanone]: the inhibition at 0.1 µM fell in the range of 0 to 25%.

Still in this assay, the particulars now being: P2X7; 0.3 μM compound (asterisk symbols); read-out: IL-1β % inhib @ 0.3 μM.
With `O=C(c1cccc(C(F)(F)F)c1)N1CCc2c(ncnc2NCC23CC4CC(CC(C4)C2)C3)C1` [Compound 89], the inhibition at 0.3 µM was 25 to 50%.

With `CC(CN1CCc2c(ncnc2NCC23CC4CC(CC(C4)C2)C3)C1)c1ccccc1` (stereo not drawn) [Compound 165], the inhibition at 0.3 µM was 0 to 25%.

For the compound `c1ccc2cc(CN3CCc4c(ncnc4NCC45CC6CC(CC(C6)C4)C5)C3)ccc2c1` [Compound 176], the inhibition at 0.3 µM lay within 0 to 25%.

`O=C(c1ccccc1Cl)N1CCc2c(ncnc2NCC23CC4CC(CC(C4)C2)C3)C1` [Compound 147]: the inhibition at 0.3 µM lay within 0 to 25%.

Consider `O=C(c1c(F)cccc1F)N1CCc2c(ncnc2NCC23CC4CC(CC(C4)C2)C3)C1` [Compound 102], for which the inhibition at 0.3 µM fell in the range of 50 to 75%.

Regarding `Cc1ccc(C(=O)N2CCc3c(ncnc3NCC34CC5CC(CC(C5)C3)C4)C2)cc1` [Compound 144], the inhibition at 0.3 µM was 50 to 75%.

Consider `c1nc2c(c(NCC34CC5CC(CC(C5)C3)C4)n1)CCN(CC1CCCCC1)C2` [Compound 167], for which the inhibition at 0.3 µM is > 75%.

Turning to `CC12CC3CC(C)(C1)CC(CNc1ncnc4c1CCN(Cc1ccccc1)C4)(C3)C2` [Compound 2], the inhibition at 0.3 µM was in the range of 0 to 25%.

Turning to `O=C(c1ccc2ccccc2n1)N1CCc2c(ncnc2NCC23CC4CC(CC(C4)C2)C3)C1` [Compound 154], the inhibition at 0.3 µM lay in the range of 25 to 50%.

Turning to `O=C(COCc1ccccc1)N1CCc2c(ncnc2NCC23CC4CC(CC(C4)C2)C3)C1` [Compound 111], the inhibition at 0.3 µM was > 75%.

For `COc1ccc(CN2CCc3c(ncnc3NCC34CC5CC(CC(C5)C3)C4)C2)cc1` [Compound 173], the inhibition at 0.3 µM lay in the range of 0 to 25%.

As for `O=C(c1ccc(Cl)c(Cl)c1)N1CCc2c(ncnc2NCC23CC4CC(CC(C4)C2)C3)C1` [Compound 100], the inhibition at 0.3 µM was in the range of 25 to 50%.

Turning to `COc1cccc(CN2CCc3c(ncnc3NCC34CC5CC(CC(C5)C3)C4)C2)c1` [Compound 195], the inhibition at 0.3 µM was > 75%.

Take `O=C(c1cc(F)ccc1F)N1CCc2c(ncnc2NCC23CC4CC(CC(C4)C2)C3)C1` [Compound 134]: the inhibition at 0.3 µM was > 75%.

`O=S(=O)(c1cccc(Oc2ccc(Cl)c(Cl)c2)c1)N1CCc2c(ncnc2NCC23CC4CC(CC(C4)C2)C3)C1` [Compound 34]: the inhibition at 0.3 µM lay within 0 to 25%.

As for `O=C(Cc1ccc(Cl)cc1)N1CCc2c(ncnc2NCC23CC4CC(CC(C4)C2)C3)C1` [Compound 120], the inhibition at 0.3 µM fell in the range of 25 to 50%.

Take `O=S(=O)(c1ccc(OC(F)F)cc1)N1CCc2c(ncnc2NCC23CC4CC(CC(C4)C2)C3)C1` [Compound 46]: the inhibition at 0.3 µM lay in the range of 25 to 50%.

Regarding `O=C(c1cccnc1Oc1ccccc1)N1CCc2c(ncnc2NCC23CC4CC(CC(C4)C2)C3)C1` [Compound 129], the inhibition at 0.3 µM is > 75%.

Take `O=S(=O)(c1ccc(Cl)cc1)N1CCc2c(ncnc2NCC23CC4CC(CC(C4)C2)C3)C1` [Compound 11]: the inhibition at 0.3 µM was in the range of 0 to 25%.

Consider `c1ccc(C(CN2CCc3c(ncnc3NCC34CC5CC(CC(C5)C3)C4)C2)c2ccccc2)cc1` [Compound 164], for which the inhibition at 0.3 µM was > 75%.

As for `O=C(c1ccc(Cl)cc1)N1CCc2c(ncnc2NCC23CC4CC(CC(C4)C2)C3)C1` [Compound 82], the inhibition at 0.3 µM lay within 25 to 50%.

The assay is the same for the next values; noted with them: P2X7; 0.3 μM compound (symbols * to ****); read-out: IL-1β % inhib @ 0.3 μM.
For `O=C(c1cnn(-c2ccccc2)c1C(F)(F)F)N1CCc2c(ncnc2NCC23CC4CC(CC(C4)C2)C3)C1` [Compound 255], the inhibition at 0.3 µM was > 75%.

As to `Fc1ccc(Br)cc1CN1CCc2c(ncnc2NCC23CC4CC(CC(C4)C2)C3)C1` [Compound 229], the inhibition at 0.3 µM was 0 to 25%.

For `COc1cc(CN2CCc3c(ncnc3NCC34CC5CC(CC(C5)C3)C4)C2)ccc1F` [Compound 240], the inhibition at 0.3 µM was > 75%.

As for `CN(CC(=O)N1CCc2c(ncnc2NCC2C3CC4CC(C3)CC2C4)C1)Cc1ccc(C(F)(F)F)cc1` (stereo not drawn) [Compound 317], the inhibition at 0.3 µM lay in the range of 25 to 50%.

With `O=C(CN1CCC(F)(F)CC1)N1CCc2c(ncnc2NCC2C3CC4CC(C3)CC2C4)C1` (stereo not drawn) [Compound 310], the inhibition at 0.3 µM lay in the range of 0 to 25%.

With `COc1cc(CN2CCc3c(ncnc3NCC34CC5CC(CC(C5)C3)C4)C2)cc(OC)c1` [Compound 244], the inhibition at 0.3 µM was > 75%.

Regarding `FC(F)(F)c1ccc(CN2CCc3c(ncnc3NCC34CC5CC(CC(C5)C3)C4)C2)cc1` [Compound 215], the inhibition at 0.3 µM is 0 to 25%.

Turning to `CN(CCc1ccccc1)CC(=O)N1CCc2c(ncnc2NCC2C3CC4CC(C3)CC2C4)C1` (stereo not drawn) [Compound 284], the inhibition at 0.3 µM was > 75%.

Consider `CCN(C)CC(=O)N1CCc2c(ncnc2NCC2C3CC4CC(C3)CC2C4)C1` (stereo not drawn) [Compound 282], for which the inhibition at 0.3 µM was in the range of 0 to 25%.

For the compound `CN(C)CCN1CCN(CC(=O)N2CCc3c(ncnc3NCC34CC5CC(CC(C5)C3)C4)C2)CC1` [Compound 258], the inhibition at 0.3 µM lay in the range of 0 to 25%.

On to `N#Cc1ccc(CN2CCc3c(ncnc3NCC34CC5CC(CC(C5)C3)C4)C2)cc1` [Compound 214], for which the inhibition at 0.3 µM fell in the range of 25 to 50%.

In the case of `COc1cc(CN2CCc3c(ncnc3NCC34CC5CC(CC(C5)C3)C4)C2)ccc1OCc1ccccc1` [Compound 199], the inhibition at 0.3 µM lay within 0 to 25%.

Turning to `FC1(F)Oc2ccc(CN3CCc4c(ncnc4NCC45CC6CC(CC(C6)C4)C5)C3)cc2O1` [Compound 238], the inhibition at 0.3 µM lay within 0 to 25%.

For `CN(CC(=O)N1CCc2c(ncnc2NCC2C3CC4CC(C3)CC2C4)C1)C1CCCCC1` (stereo not drawn) [Compound 269], the inhibition at 0.3 µM is 50 to 75%.

For `COc1ccc(CCN(C)CC(=O)N2CCc3c(ncnc3NCC3C4CC5CC(C4)CC3C5)C2)cc1OC` (stereo not drawn) [Compound 297], the inhibition at 0.3 µM lay in the range of 0 to 25%.

The assay is the same for the next values; noted with them: P2X7; at 0.03 μM (asterisk symbols); read-out: IL-1β % inhib @ 0.3 μM or @ 0.03 μM.
Consider `C[C@@H](NC(=O)OC(C)(C)C)C(=O)N1CCc2c(ncnc2NCC(O)C23CC4CC(CC(C4)C2)C3)C1` (stereo partly drawn) [Compound 710, {(R)-2-[4-(2-Adamantan-1-yl-2-hydroxy-ethylamino)-5,8-dihydro-6H-pyrido[3,4-d]pyrimidin-7-yl]-1-methyl-2-oxo-ethyl}-carbamic acid tert-butyl ester], for which the inhibition at 0.03 µM was 0 to 25%.

For the compound `CC(C)(C)OC(=O)N[C@H](Cc1ccccc1)C(=O)N1CCc2c(ncnc2NCC(O)C23CC4CC(CC(C4)C2)C3)C1` (stereo partly drawn) [Compound 711, {(R)-2-[4-(2-Adamantan-1-yl-2-hydroxy-ethylamino)-5,8-dihydro-6H-pyrido[3,4-d]pyrimidin-7-yl]-1-benzyl-2-oxo-ethyl}-carbamic acid tert-butyl ester], the inhibition at 0.03 µM fell in the range of 0 to 25%.
